Reference: patent US12251411B2, “Methods of treating endometrial cancer using hemp extract” (Ecofibre USA Inc., priority 2021, dated 2025)
pIC50: −log10 of the molar value. Read-outs that look alike come from different tables or passages of the source.

What was measured:
[1] = test system: patient derived organoids; assay: Calculated IC50 of various agents on organoids derived from the chemoresistant patient (PD3D cell culture); type: cell-based, human; settings: organoids of the chemoresistant stage IV patient
Method: The IC50 values were calculated from such tests. This value indicates the dosage at which 50% of the organoids were killed due to treatment.

[2] = cited from earlier work
[3] = test system: patient derived organoids; type: cell-based, human; settings: % of cells that died compared to control; organoids of the chemoresistant patient
Method: In addition to the agents listed above, several other drugs were tested to see if they influenced organoid growth. In this case, results are shown as the % of cells that died compared to control. […] This is consistent with the patient's actual lack of response to treatment with paclitaxel.

| Calculated IC50 PD3D Cell Culture [1] | Compound | Cmax ([2]; in vivo) [nM] | % Cell Death [3] | other results |
| --- | --- | --- | --- | --- |
|  | C[C@H]1[C@H](OC(=O)CCC(=O)O)O[C@@H]2O[C@@]3(C)CC[C@H]4[C@H](C)CC[C@@H]1[C@@]24OO3 [Artesunate] | 8580 |  | pIC50 ([1]; Homo sapiens): 4.42 |
| Not Reached | O=C1O[C@H]([C@@H](O)CO)C(O)=C1O [Ascorbic Acid] | 436000 |  |  |
|  | CO[C@H]1C(=O)[C@]2(C)[C@@H](OC)C[C@H]3OC[C@@]3(OC(C)=O)[C@H]2[C@H](OC(=O)c2ccccc2)[C@]2(O)C[C@H](OC(=O)[C@H](O)[C@@H](NC(=O)OC(C)(C)C)c3ccccc3)C(C)=C1C2(C)C [Cabazitaxel] |  | 37% |  |
|  | N.N.[Cl][Pt][Cl] [Cisplatin] | 3620 | 36% | pIC50 [1]: 5.30 |
| Not Reached | O=C(c1ccc(F)c(F)c1Nc1ccc(I)cc1F)N1CC(O)([C@@H]2CCCCN2)C1 [Cobimetinib] |  |  | Cmax [2]: 514 nM |
|  | COc1cc2c(c(OC)c1OC)-c1ccc(OC)c(=O)cc1[C@@H](NC(C)=O)CC2 [Colchicine] | 6 |  |  |
| Not Reached | C[C@@H](Oc1cc(-c2cnn(C3CCNCC3)c2)cnc1N)c1c(Cl)ccc(F)c1Cl [Crizotinib] | 230 |  |  |
|  | O=P1(N(CCCl)CCCl)NCCCO1 (stereo not shown) [Cyclosphosphamide] |  | 32% |  |
|  | CN(C)/N=N/c1[nH]cnc1C(N)=O [Dacarbazine] |  | 32% |  |
|  | CC(=O)O[C@@]12CO[C@@H]1C[C@H](O)[C@@]1(C)C(=O)[C@H](O)C3=C(C)[C@@H](OC(=O)[C@H](O)[C@@H](NC(=O)OC(C)(C)C)c4ccccc4)C[C@@](O)([C@@H](OC(=O)c4ccccc4)[C@H]21)C3(C)C [Docetaxel] |  | No Response |  |
|  | COc1cccc2c1C(=O)c1c(O)c3c(c(O)c1C2=O)C[C@@](O)(C(=O)CO)C[C@@H]3O[C@H]1C[C@H](N)[C@H](O)[C@H](C)O1 [Doxorubicin] |  | 39% |  |
|  | COc1cc([C@@H]2c3cc4c(cc3[C@@H](O[C@@H]3O[C@@H]5CO[C@@H](C)O[C@H]5[C@H](O)[C@H]3O)[C@H]3COC(=O)[C@H]23)OCO4)cc(OC)c1O [Etoposide] |  | 33% | pIC50 ([1]; Homo sapiens, unit inferred): 4.06; Cmax [2]: 33900 nM |
|  | Nc1ccn([C@@H]2O[C@H](CO)[C@@H](O)C2(F)F)c(=O)n1 [Gemcitabine] |  | 56% |  |
| Not Reached | N[C@@H](CCC(=O)N[C@@H](CS)C(=O)NCC(=O)O)C(=O)O [Glutathione] | 150000 |  |  |
| Not Reached | CCN(CCO)CCCC(C)Nc1ccnc2cc(Cl)ccc12 (stereo not shown) [Hydroxychloroquine] | 120 |  |  |
|  | CCc1c2c(nc3ccc(OC(=O)N4CCC(N5CCCCC5)CC4)cc13)-c1cc3c(c(=O)n1C2)COC(=O)[C@]3(O)CC [Irinotecan] |  | 51% |  |
| Not Reached | COc1cc2nccc(Oc3ccc(NC(=O)NC4CC4)c(Cl)c3)c2cc1C(N)=O [Lenvatinib] |  |  | Cmax [2]: 1000 nM |
|  | N[C@@H](Cc1ccc(N(CCCl)CCCl)cc1)C(=O)O [Melphalan] |  | 40% |  |
| Not Reached | CN(C)C(=N)N=C(N)N [Metformin] | 10800 |  |  |
|  | O=C1c2c(O)ccc(O)c2C(=O)c2c(NCCNCCO)ccc(NCCNCCO)c21 [Mitoxantrone] |  | 50% |  |

| Calculated IC50 PD3D Cell Culture [1] | Compound | Cmax ([2]; in vivo) [nM] | % Cell Death [3] | other results |
| --- | --- | --- | --- | --- |
|  | O=C(Nc1ccc([N+](=O)[O-])cc1Cl)c1cc(Cl)ccc1O [Niclosamide] | 310 |  | pIC50 ([1]; Homo sapiens): 6.22 |
| Not Reached | O=C(c1cc(Cc2n[nH]c(=O)c3ccccc23)ccc1F)N1CCN(C(=O)C2CC2)CC1 [Olaparib] |  |  | Cmax [2]: 17500 nM |
|  | Cc1[nH]c2ccccc2c1CCNCc1ccc(/C=C/C(=O)NO)cc1 [Panobinostat] | 60 |  | pIC50 ([1]; Homo sapiens): 6.96 |
| Not Reached | Nc1cccc2c1C(=O)N(C1CCC(=O)NC1=O)C2=O (stereo not shown) [Pomalidomide] | 270 |  |  |
|  | Cc1ccc(C(=O)Nc2ccc(CN3CCN(C)CC3)c(C(F)(F)F)c2)cc1C#Cc1cnc2cccnn12 [Ponatinib] |  |  | Cmax [2]: 137 nM |
|  | CC(C)NCC(O)COc1cccc2ccccc12 (stereo not shown) [Propranolol] |  |  | Cmax [2]: 102 nM |
|  | N#CC[C@H](C1CCCC1)n1cc(-c2ncnc3[nH]ccc23)cn1 [Ruxolitinib] |  |  | Cmax [2]: 587 nM |
|  | CO[C@@H](C)Cn1c(=O)n(C)c2cnc3ccc(-c4cncc(C(C)(C)O)c4)cc3c21 [Samotolisib] | 600 |  | pIC50 ([1]; Homo sapiens): 6.06 |
|  | COc1cc2c(cc1O)CCN[C@]21CS[C@@H]2c3c(OC(C)=O)c(C)c4c(c3[C@H](COC1=O)N1[C@@H]2[C@H]2c3c(cc(C)c(OC)c3O)C[C@@H]([C@@H]1O)N2C)OCO4 [Trabectedine] |  | 32% |  |
|  | CC[C@]1(O)C[C@@H]2CN(CCc3c([nH]c4ccccc34)[C@@](C(=O)OC)(c3cc4c(cc3OC)N(C)[C@H]3[C@@](O)(C(=O)OC)[C@H](OC(C)=O)[C@]5(CC)C=CCN6CC[C@]43[C@@H]65)C2)C1 [Vinblastine] |  | 38% |  |
|  | CCC1=C[C@@H]2CN(C1)Cc1c([nH]c3ccccc13)[C@@](C(=O)OC)(c1cc3c(cc1OC)N(C)[C@H]1[C@@](O)(C(=O)OC)[C@H](OC(C)=O)[C@]4(CC)C=CCN5CC[C@]31[C@@H]54)C2 [Vinorelbine] |  | 45% |  |
|  | COc1cccc2c1C(=O)c1c(O)c3c(c(O)c1C2=O)C[C@@](O)(C(=O)CO)C[C@@H]3O[C@H]1C[C@H](N)[C@@H](O)[C@H](C)O1 [epirubicin] |  | No Response |  |
|  | C=C1C[C@@H]2CC[C@@]34C[C@H]5O[C@H]6[C@@H](O3)[C@H]3O[C@H](CC[C@@H]3O[C@H]6[C@H]5O4)CC(=O)C[C@@H]3[C@@H](OC)[C@@H](C[C@H](O)CN)O[C@H]3C[C@H]3O[C@@H](CC[C@@H]1O2)C[C@@H](C)C3=C [eribulin] |  | No Response |  |
|  | O=P1(NCCCl)OCCCN1CCCl (stereo not shown) [ifosfamide] |  | No Response |  |
|  | CN(Cc1cnc2nc(N)nc(N)c2n1)c1ccc(C(=O)N[C@@H](CCC(=O)O)C(=O)O)cc1 [methotrexate] |  | No Response |  |
|  | CO[C@@]12[C@H](COC(N)=O)C3=C(C(=O)C(C)=C(N)C3=O)N1C[C@@H]1N[C@@H]12 [mitomycin] |  | No Response |  |
|  | O=C1[O][Pt]2([NH][C@@H]3CCCC[C@H]3[NH]2)[O]C1=O [oxaliplatin] |  | No Response |  |
|  | CC[C@]1(O)C[C@H]2CN(CCc3c([nH]c4ccccc34)[C@@](C(=O)OC)(c3cc4c(cc3OC)N(C=O)[C@H]3[C@@](O)(C(=O)OC)[C@H](OC(C)=O)[C@]5(CC)C=CCN6CC[C@]43[C@@H]65)C2)C1 [vincristine] |  | No Response |  |
|  | Bleomycin |  | 53% |  |

| Compound | Calculated IC50 PD3D Cell Culture [1] | Cmax ([2]; in vivo) [nM] | % Cell Death [3] | other results |
| --- | --- | --- | --- | --- |
| CCCCCOC(=O)Nc1nc(=O)n([C@@H]2O[C@H](C)[C@@H](O)[C@H]2O)cc1F [Capecitabine (5-FU)] | Not Reached |  | 61% |  |
| O=C(O)C(Cl)Cl [Dichloracetate] | Not Reached | 330000 |  |  |
| Nc1nc2[nH]cc(CCc3ccc(C(=O)N[C@@H](CCC(=O)O)C(=O)O)cc3)c2c(=O)[nH]1 [Pemetrexed] | Not Reached |  | No Response | Cmax [2]: 291000 nM |
| CCN(CC)CCNC(=O)c1c(C)[nH]c(/C=C2\C(=O)Nc3ccc(F)cc32)c1C [Sunitnib] | Not Reached | 90 |  |  |
| Bevacizumab | Not Reached | 920 |  |  |
